Source: patent US20240025884A1 (Dong-A ST Co., Ltd., priority 2022, published 2024)

target: GCN2 (Homo sapiens (Human), UniProt Q9P2K8); assay: GCN2 Biochemical Assay (TR-FRET, GFP-eIF2S1 substrate phosphorylation); conditions: read-out: IC50 (GCN2 Inhibitory Activity)
Method in brief: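 In-house GCN2 (1.6 nM 2× stock) phosphorylates GFP-eIF2S1 (50 nM 2× stock) with ATP (0.2 mM 2× stock) and tRNA, pH 7.5, 70 min at room temperature; 10-point 3.16-fold compound series. TR-FRET detection with Tb-anti-phospho antibody, 2–3 h, Ex 340/Em 490/520 nm; artifact plate spiked with phospho-substrate.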

Sequence of GCN2 (Q9P2K8 whole entry): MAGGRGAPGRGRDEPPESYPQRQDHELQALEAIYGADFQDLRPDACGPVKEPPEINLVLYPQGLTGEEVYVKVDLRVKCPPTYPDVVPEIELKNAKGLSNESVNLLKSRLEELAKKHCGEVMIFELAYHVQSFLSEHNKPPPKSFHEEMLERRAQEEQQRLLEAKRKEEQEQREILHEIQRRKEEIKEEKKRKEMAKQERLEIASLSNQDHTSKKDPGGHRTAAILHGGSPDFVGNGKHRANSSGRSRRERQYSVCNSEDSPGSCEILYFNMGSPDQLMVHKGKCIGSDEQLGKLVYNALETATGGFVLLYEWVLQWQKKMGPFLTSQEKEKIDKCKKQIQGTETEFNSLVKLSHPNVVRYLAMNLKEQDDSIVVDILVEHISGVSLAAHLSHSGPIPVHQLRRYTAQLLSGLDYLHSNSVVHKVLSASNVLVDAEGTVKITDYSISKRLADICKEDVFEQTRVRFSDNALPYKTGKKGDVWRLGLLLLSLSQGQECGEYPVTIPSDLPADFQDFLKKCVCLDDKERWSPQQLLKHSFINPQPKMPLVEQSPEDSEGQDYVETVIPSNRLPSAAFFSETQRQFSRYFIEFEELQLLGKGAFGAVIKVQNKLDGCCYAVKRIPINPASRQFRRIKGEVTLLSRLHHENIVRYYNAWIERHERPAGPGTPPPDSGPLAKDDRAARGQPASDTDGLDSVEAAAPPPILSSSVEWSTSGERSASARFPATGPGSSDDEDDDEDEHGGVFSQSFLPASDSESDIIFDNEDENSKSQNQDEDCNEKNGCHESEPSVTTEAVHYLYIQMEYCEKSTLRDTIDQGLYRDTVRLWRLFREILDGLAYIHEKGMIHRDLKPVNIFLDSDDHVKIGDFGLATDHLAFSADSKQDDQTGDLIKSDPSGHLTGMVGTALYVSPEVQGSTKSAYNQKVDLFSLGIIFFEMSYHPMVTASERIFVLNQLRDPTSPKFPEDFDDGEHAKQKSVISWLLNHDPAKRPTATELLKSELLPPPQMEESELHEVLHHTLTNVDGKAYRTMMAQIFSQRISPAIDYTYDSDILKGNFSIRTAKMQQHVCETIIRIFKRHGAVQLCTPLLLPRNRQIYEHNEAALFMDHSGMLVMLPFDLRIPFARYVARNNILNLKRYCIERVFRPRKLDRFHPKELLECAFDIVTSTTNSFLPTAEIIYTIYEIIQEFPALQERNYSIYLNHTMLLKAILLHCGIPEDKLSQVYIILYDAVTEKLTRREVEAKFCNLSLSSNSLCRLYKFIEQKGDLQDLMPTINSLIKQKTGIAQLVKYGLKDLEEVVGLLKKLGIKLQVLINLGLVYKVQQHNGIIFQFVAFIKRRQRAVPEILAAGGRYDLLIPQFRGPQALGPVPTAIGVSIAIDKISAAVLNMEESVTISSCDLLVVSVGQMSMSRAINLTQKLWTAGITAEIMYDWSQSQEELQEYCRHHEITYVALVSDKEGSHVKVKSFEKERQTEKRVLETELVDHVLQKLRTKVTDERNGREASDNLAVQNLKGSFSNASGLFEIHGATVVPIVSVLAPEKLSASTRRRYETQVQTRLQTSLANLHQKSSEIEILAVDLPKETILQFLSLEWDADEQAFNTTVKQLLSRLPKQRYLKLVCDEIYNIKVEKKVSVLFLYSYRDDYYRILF

| IC50 [nM] | Compound |
| --- | --- |
| < 10 | Cc1cnc(Nc2cc(C)n(C)n2)nc1-c1c[nH]c2c(N3Cc4c(cccc4-c4cnc(N)nc4)C3=O)cccc12 [Example 418, 4-(2-aminopyrimidin-5-yl)-2-(3-(2-((1,5-dimethyl-1H-pyrazol-3-yl)amino)-5-methylpyrimidin-4-yl)-1H-indol-7-yl)isoindolin-1-one] |
| < 10 | Cc1cnc(Nc2cc(C)n(C)n2)nc1-c1c[nH]c2c(N3Cc4c(cccc4-c4cncc(N)c4)C3=O)cccc12 [Example 419, 4-(5-aminopyridin-3-yl)-2-(3-(2-((1,5-dimethyl-1H-pyrazol-3-yl)amino)-5-methylpyrimidin-4-yl)-1H-indol-7-yl)isoindolin-1-one] |
| < 10 | Cc1cnc(Nc2cc(C)n(C)n2)nc1-c1c[nH]c2c(N3Cc4c(cccc4-c4ccc(N)nc4)C3=O)cccc12 [Example 420, 4-(6-aminopyridin-3-yl)-2-(3-(2-((1,5-dimethyl-1H-pyrazol-3-yl)amino)-5-methylpyrimidin-4-yl)-1H-indol-7-yl)isoindolin-1-one] |
| < 10 | Cc1cnc(Nc2cc(C)n(C)n2)nc1-c1c[nH]c2c(N3Cc4c(cccc4-c4ccncn4)C3=O)cccc12 [Example 421, 2-(3-(2-((1,5-dimethyl-1H-pyrazol-3-yl)anlino)-5-methylpyrimidin-4-yl)-1H-indol-7-yl)-4-(pyrimidin-4-yl)isoindolin-1-one] |
| < 10 | Cc1cnc(Nc2cc(C)n(C)n2)nc1-c1c[nH]c2c(N3Cc4c(cccc4-c4ccnc(N)n4)C3=O)cccc12 [Example 422, 4-(2-aminopyrimidin-4-yl)-2-(3-(2-((1,5-dimethyl-1H-pyrazol-3-yl)amino)-5-methylpyrimidin-4-yl)-1H-indol-7-yl)isoindolin-1-one] |
| < 10 | Cc1cnc(Nc2cc(C)n(C)n2)nc1-c1c[nH]c2c(N3Cc4c(cccc4-c4cc(N5CCN(C)CC5)ccn4)C3=O)cccc12 [Example 423, 2-(3-(2-((1,5-dimethyl-1H-pyrazol-3-yl)amino)-5-methylpyrimidin-4-yl)-1H-indol-7-yl)-4-(4-(4-methylpiperazin-1-yl)pyridin-2-yl)isoindolin-1-one] |
| < 10 | Cc1cnc(Nc2cc(C)n(C)n2)nc1-c1c[nH]c2c(N3Cc4c(cccc4-c4cnc(N5CCNCC5)nc4)C3=O)cccc12 [Example 424, 2-(3-(2-((1,5-dimethyl-1H-pyrazol-3-yl)amino)-5-methylpyrimidin-4-yl)-1H-indol-7-yl)-4-(2-(piperazin-1-yl)pyrimidin-5-yl)isoindolin-1-one] |
| < 10 | Cc1cnc(Nc2cc(C)n(C)n2)nc1-c1c[nH]c2c(N3Cc4c(cccc4-c4ccc(N5CCOCC5)nc4)C3=O)cccc12 [Example 425, 2-(3-(2-((1,5-dimethyl-1H-pyrazol-3-yl)amino)-5-methylpyrimidin-4-yl)-1H-indol-7-yl)-4-(6-morpholinopyridin-3-yl)isoindolin-1-one] |
| < 10 | Cc1cnc(Nc2cc(C)n(C)n2)nc1-c1c[nH]c2c(N3Cc4c(cccc4-c4ccc(N5CCN(C)CC5)cc4)C3=O)cccc12 [Example 426, 2-(3-(2-((1,5-dimethyl-1H-pyrazol-3-yl)amino)-5-methylpyrimidin-4-yl)-1H-indol-7-yl)-4-(4-(4-methylpiperazin-1-yl)phenyl)isoindolin-1-one] |
| < 10 | Cc1cnc(Nc2cc(C)n(C)n2)nc1-c1c[nH]c2c(N3Cc4c(cccc4-c4cc(F)nc(F)c4)C3=O)cccc12 [Example 427, 4-(2,6-difluoropyridin-4-yl)-2-(3-(2-((1,5-dimethyl-1H-pyrazol-3-yl)amino)-5-methylpyrimidin-4-yl)-1H-indol-7-yl)isoindolin-1-one] |
| < 10 | Cc1cnc(Nc2cc(C)n(C)n2)nc1-c1c[nH]c2c(N3Cc4c(cccc4-c4c(F)cncc4F)C3=O)cccc12 [Example 428, 4-(3,5-difluoropyridin-4-yl)-2-(3-(2-((1,5-dimethyl-1H-pyrazol-3-yl)amino)-5-methylpyrimidin-4-yl)-1H-indol-7-yl)isoindolin-t-one] |
| < 10 | Cc1cc(-c2cccc3c2CN(c2cccc4c(-c5nc(Nc6cc(C)n(C)n6)ncc5C)c[nH]c24)C3=O)ccn1 [Example 429, 2-(3-(2-((1,5-dimethyl-1H-pyrazol-3-yl)amino)-5-methylpyrimidin-4-yl)-1H-indol-7-yl)-4-(2-methylpyridin-4-yl)isoindolin-1-one] |
| < 10 | Cc1cnc(Nc2cc(C)n(C)n2)nc1-c1c[nH]c2c(N3Cc4c(cccc4-c4ccc5c(c4)CNC5)C3=O)cccc12 [Example 430, 2-(3-(2-((1,5-dimethyl-1H-pyrazol-3-yl)amino)-5-methylpyrimidin-4-yl)-1H-indol-7-yl)-[4,5′-biisoindolin]-1-one] |
| < 10 | Cc1cnc(Nc2cc(C)n(C)n2)nc1-c1c[nH]c2c(N3Cc4c(cccc4-c4cccnc4F)C3=O)cccc12 [Example 431, 2-(3-(2-((1,5-dimethyl-1H-pyrazol-3-yl)amino)-5-methylpyrimidin-4-yl)-1H-indol-7-yl)-4-(2-fluoropyridin-3-yl)isoindolin-1-one] |
| < 10 | Cc1cnc(Nc2cc(C)n(C)n2)nc1-c1c[nH]c2c(N3Cc4c(cccc4-c4ccc(C#N)cc4)C3=O)cccc12 [Example 432, 4-(2-(3-(2-((1,5-dimethyl-1H-pyrazol-3-yl)amino)-5-methylpyrimidin-4-yl)-1H-indol-7-yl)-1-oxoisoindolin-4-yl)benzonitrile] |
| 10 to 100 | Cc1cnc(Nc2cc(C)n(C)n2)nc1-c1c[nH]c2c(N3Cc4c(cccc4-c4ccc(C#N)cc4F)C3=O)cccc12 [Example 433, 4-(2-(3-(2-((1,5-dimethyl-1H-pyrazol-3-yl)amino)-5-methylpyrimidin-4-yl)-1H-indol-7-yl)-1-oxoisoindolin-4-yl)-3-fluorobenzonitrile] |
| 100 to 1000 | Cc1cnc(Nc2cc(C)n(C)n2)nc1-c1c[nH]c2c(N3Cc4c(cccc4-c4ccccc4C(F)(F)F)C3=O)cccc12 [Example 434, 2-(3-(2-((1,5-dimethyl-1H-pyrazol-3-yl)amino)-5-methylpyrimidin-4-yl)-1H-indol-7-yl)-4-(2-(trifluoromethyl)phenyl)isoindolin-1-one] |
| < 10 | COc1ncccc1-c1cccc2c1CN(c1cccc3c(-c4nc(Nc5cc(C)n(C)n5)ncc4C)c[nH]c13)C2=O [Example 435, 2-(3-(2-((1,5-dimethyl-1H-pyrazol-3-yl)amino)-5-methylpyrimidin-4-yl)-1H-indol-7-yl)-4-(2-methoxypyridin-3-yl)isoindolin-1-one] |
| 10 to 100 | Cc1cnc(Nc2cc(C)n(C)n2)nc1-c1c[nH]c2c(N3Cc4c(cccc4-c4ccc(N(C)C)cc4)C3=O)cccc12 [Example 436, 2-(3-(2-((1,5-dimethyl-1H-pyrazol-3-yl)amino)-5-methylpyrimidin-4-yl)-1H-indol-7-yl)-4-(4-(dimethylamino)phenyl)isoindolin-1-one] |
| < 10 | Cc1cnc(Nc2cc(C)n(C)n2)nc1-c1c[nH]c2c(N3Cc4c(cccc4-c4ccccc4CO)C3=O)cccc12 [Example 437, 2-(3-(2-((1,5-dimethyl-1H-pyrazol-3-yl)amino)-5-methylpyrimidin-4-yl)-1H-indol-7-yl)-4-(2-(hydroxymethyl)phenyl)isoindolin-1-one] |
| 10 to 100 | COc1ccccc1-c1cccc2c1CN(c1cccc3c(-c4nc(Nc5cc(C)n(C)n5)ncc4C)c[nH]c13)C2=O [Example 438, 2-(3-(2-((1,5-dimethyl-1H-pyrazol-3-yl)amino)-5-methylpyrimidin-4-yl)-1H-indol-7-yl)-4-(2-methoxyphenyl)isoindolin-1-one] |
| > 1000 | Cc1cnc(Nc2cc(C)n(C)n2)nc1-c1c[nH]c2c(N3Cc4c(cccc4-c4ccccc4-c4ccccc4)C3=O)cccc12 [Example 439, 4-([1,1′-biphenyl]-2-yl)-2-(3-(2-((1,5-dimethyl-1H-pyrazol-3-yl)amino)-5-methylpyrimidin-4-yl)-1H-indol-7-yl)isoindolin-1-one] |
| 10 to 100 | Cc1ccccc1-c1cccc2c1CN(c1cccc3c(-c4nc(Nc5cc(C)n(C)n5)ncc4C)c[nH]c13)C2=O [Example 440, 2-(3-(2-((1,5-dimethyl-1H-pyrazol-3-yl)amino)-5-methylpyrimidin-4-yl)-1H-indol-7-yl)-4-(o-tolyl)isoindolin-1-one] |
| 10 to 100 | Cc1cnc(Nc2cc(C)n(C)n2)nc1-c1c[nH]c2c(N3Cc4c(cccc4-c4ccccc4O)C3=O)cccc12 [Example 441, 2-(3-(2-((1,5-dimethyl-1H-pyrazol-3-yl)amino)-5-methylpyrimidin-4-yl)-1H-indol-7-yl)-4-(2-hydroxyphenyl)isoindolin-1-one] |
| 10 to 100 | Cc1cnc(Nc2cc(C)n(C)n2)nc1-c1c[nH]c2c(N3Cc4c(cccc4-c4ccc[nH]4)C3=O)cccc12 [Example 442, 2-(3-(2-((1,5-dimethyl-1H-pyrazol-3-yl)amino)-5-methylpyrimidin-4-yl)-1H-indol-7-yl)-4-(1H-pyrrol-2-yl)isoindolin-1-one] |
| 10 to 100 | Cc1cnc(Nc2cc(C)n(C)n2)nc1-c1c[nH]c2c(N3Cc4c(cccc4-c4cccn4C(=O)OC(C)(C)C)C3=O)cccc12 [Example 443, tert-butyl 2-(2-(3-(2-((1,5-dimethyl-1H-pyrazol-3-yl)amino)-5-methylpyrimidin-4-yl)-1H-indol-7-yl)-1-oxoisoindolin-4-yl)-1H-pyrrole-1-carboxylate] |
| < 10 | Cc1cnc(Nc2cc(C)n(C)n2)nc1-c1c[nH]c2c(N3Cc4c(cccc4-c4c(C)noc4C)C3=O)cccc12 [Example 444, 2-(3-(2-((1,5-dimethyl-1H-pyrazol-3-yl)amino)-5-methylpyrimidin-4-yl)-1H-indol-7-yl)-4-(3,5-dimethylisoxazol-4-yl)isoindolin-1-one] |
| < 10 | COc1cc(-c2cccc3c2CN(c2cccc4c(-c5nc(Nc6cc(C)n(C)n6)ncc5C)c[nH]c24)C3=O)ccn1 [Example 445, 2-(3-(2-((1,5-dimethyl-1H-pyrazol-3-yl)amino)-5-methylpyrimidin-4-yl)-1H-indol-7-yl)-4-(2-methoxypyridin-4-yl)isoindolin-1-one] |
